Values quoted from earlier work as cited in patent US20110166187A1, “METHODS OF USING SUSTAINED RELEASE AMINOPYRIDINE COMPOSITIONS” (priority 2004, published 2011).

Test system: voltage dependent, neuronal potassium channels

Nc1ccncc1 [fampridine, 4-aminopyridine]
concentrations at which it appears to be a specific blocker of voltage dependent, neuronal potassium channels: 1 to 2 µM
